{"source": "patent US20140286868A1", "about": "“IMMORTALIZED HUMAN PROSTATE CELL LINES” (Tuskegee University, priority 2011, published 2014)", "key": {"RC-77N/E cells": {"system": "RC-77N/E cells", "experiment": "Androgen sensitivity: cell proliferation by MTT assay, RC-77N/E cells", "format": "cell-based, human", "conditions": "4 days", "procedure": "(§1) Since androgen receptor expression was observed both cell lines, an experiment was conducted to determine the effects of androgen stimulation on the growth of RC-77N/E and RC-77T/E cells. Cells were grown in serum-free K-SFM at different doses of Methyltrienolone (R1881), a synthetic androgen, for 4 days.\n(§2) In this experiment, 2×10^4 cells per well of each line were grown in serum-free K-SFM with 0.1% BSA in the presence of 0, 0.1, 1.0, 10.0 and 100.0 nM for 4 days. K-SFM was supplemented with or without Methyltrienolone (R1881) (obtained from Perkin-Elmer, Waltham, Mass.), at concentrations of 0.1, 1, 10 and 100 nM, respectively. Cell proliferation was determined by MTT assay according to a procedure as generally described by Wells et al. (“Luteinizing hormone-releasing hormone agonist limits DU-145 prostate cancer growth by attenuating epidermal growth factor receptor signaling.” Clin. Cancer Res. 8: 1251-1257, 2002.).\n(§3) The results from this experiment are illustrated in the chart of FIG. 4, with percent growth being determined by the number of cell counts being expressed as the mean value of triplicate observation. […] Further, the RC-77T/E cells were found responsive to 0.1 nM R1881, while RC-77N/E cells were only responsive at the higher dosage of 1.0 nM."}, "RC-77T/E cells": {"system": "RC-77T/E cells", "experiment": "Androgen sensitivity: cell proliferation by MTT assay, RC-77T/E cells", "format": "cell-based, human", "conditions": "4 days", "procedure": "as §1, §2, §3"}, "[1]": {"conditions": "1.0 nM R1881, serum-free K-SFM with 0.1% BSA"}, "[2]": {"conditions": "100.0 nM R1881, serum-free K-SFM with 0.1% BSA"}}}
{"compound": "C[C@]1(O)CC[C@H]2[C@@H]3CCC4=CC(=O)CCC4=C3C=C[C@@]21C", "note": "[R1881, Methyltrienolone]", "values": [{"measurement": "cell growth", "setting": "RC-77N/E cells; [1]", "result": "Significant stimulation in cell growth"}, {"measurement": "cell growth", "setting": "RC-77N/E cells; [2]", "result": "inhibition of cell growth"}, {"measurement": "cell growth response to androgen stimulation", "setting": "RC-77T/E cells; 0.1 nM R1881, serum-free K-SFM with 0.1% BSA", "result": "responsive"}, {"measurement": "cell growth", "setting": "RC-77T/E cells; [1]", "result": "Significant stimulation in cell growth"}, {"measurement": "cell growth", "setting": "RC-77T/E cells; [2]", "result": "inhibition of cell growth"}]}
